Consider 16 compounds from patent US20060035983A1, “Methods for treating fungal infections” (priority 2002, published 2006).

For series [1], the system named is Trichophyton rubrum. The experiment in a line: Antifungal susceptibility testing (NCCLS M27-A), Trichophyton rubrum cultures in vitro. In kind it is cell-based. Conditions: for MIC80 / MIC100: 7 days at 30° C.; for MIC100: lowest concentration that inhibited 100% of fungal growth; for MFC: lowest concentration that killed at least 97% of the original inoculum; for fungicidal effect: result in words. Here is the method:
Suspensions were then treated with various polyoxyethylene alkyl ethers at a range of concentrations, and incubated for 7 days at 30° C. […] Minimum fungicidal concentrations (MFCs) were determined as the lowest concentration of compound that killed at least 97% of the original inoculum, as compared with the verified inoculum count.

The test system of series [2] is Trichophyton mentagrophytes. The experiment in a line: Additional fungal species susceptibility testing, Trichophyton mentagrophytes. It is filed as cell-based. On the procedure:
(§1) A number of polyoxyethylene alkyl ethers were tested for fungicidal activity against Trichophyton rubrum cultures in vitro according to standard methods (see, Approved Standard M27-A, National Commitee for […] Laboratory Standards, 1997). Briefly, inocula from Trichophyton rubrum were harvested from agar cultures, suspended in 0.85% saline, and diluted to a verified final concentration of […] colony-forming units (CFU) per ml. Suspensions were then treated with various polyoxyethylene alkyl ethers at a range of concentrations, and incubated for 7 days at 30° C. Minimum inhibitory concentrations (MICs) were determined as the lowest concentration of compound that inhibited 100% of fungal growth, as compared with a polyoxyethylene alkyl ether-free control suspension. Minimum fungicidal concentrations (MFCs) were determined as the lowest concentration of compound that killed at least 97% of the original inoculum, as compared with the verified inoculum count. Trichophyton rubrum is the causative organism in 68-100% of patients in onychomycosis trials (Crawford et al. (2002) Archives Dermatol. 138:811-816). Trichophyton Mentagrophytes is the causative organism in most of the rest. Although yeast and other nondermatophytes can cause onychomycosis, the incidence is small. Additional fungal species were tested for susceptibility to treatment with Laureth-4 as described in Example 1.

Series [3] deals with Candida Albicans. The experiment in a line: Additional fungal species susceptibility testing, Candida albicans. It is filed as cell-based. Here is the method: as §1
The subject of series [4] is Candida Parapsilosis. The experiment in a line: Additional fungal species susceptibility testing, Candida parapsilosis. In kind it is cell-based. On the procedure:
as §1

For series [5], the system named is Scopulariopsis brevicaulis. The experiment in a line: Additional fungal species susceptibility testing, Scopulariopsis brevicaulis. It is filed as cell-based. On the procedure: as §1
The test system of series [6] is Aspergillus flavus. Description: Additional fungal species susceptibility testing, Aspergillus flavus. In kind it is cell-based. Here is the method:
as §1

Series [7] relates to Fusarium solani. Description: Additional fungal species susceptibility testing, Fusarium solani. In kind it is cell-based. On the procedure:
as §1

For series [8] the following is noted: critical micelle content; no method given; cited from earlier work.

≈ marks a conversion by molar mass, not a printed value. Some results are limits rather than exact numbers.

As usually defined, the MIC80 is an inhibitory concentration at the 80% level, which refers to growth in some studies and to a panel of isolates in others. The MFC is the lowest tested concentration that kills the fungus rather than only halting it. For “Polyoxyethylene 4 lauryl ether [BRIJ 30]”, the MIC80 in series [1] was 0.98 µg/mL; in series [2], 5 µg/mL; in series [3], over 5000 µg/mL; in series [4] it was 15.5 µg/mL; in series [5], 78 µg/mL; in series [6], 39 µg/mL. For the same compound, in series [7], the MIC80 amounted to 78 µg/mL. The MIC100 in series [1] is 1.95 µg/mL; in series [2] it was 625 µg/mL; in series [3], over 5000 µg/mL; in series [4], over 5000 µg/mL; in series [5], over 5000 µg/mL; in series [6], over 5000 µg/mL. Further, the MIC100 in series [7] was over 5000 µg/mL. Also, the MFC in series [1] was 1.95 µg/mL; in series [2], 625 µg/mL; in series [3], over 5000 µg/mL; in series [4], over 5000 µg/mL; in series [5] it was over 5000 µg/mL; in series [6], over 5000 µg/mL. Also, the MFC in series [7] is over 5000 µg/mL.
In series [1], “Polyoxyethylenesorbitan monolaurate [Tween 20]” displayed an MIC80 of 125 µg/mL, an MIC100 of 500 µg/mL and an MFC of 1000 µg/mL. The CMC in series [8] is given as 0.059 mM.
Regarding “Polyoxyethylene 20 stearyl ether [BRIJ 78]”, in series [1], the MIC80 was found to be 0.98 µg/mL, the MIC100 came out at 1.95 µg/mL and the MFC came out at 3.9 µg/mL.
Consider “Polyoxyethylene 20 oleyl ether [BRIJ 98]”, for which, in series [1], the MIC80 turned out to be 250 µg/mL, the MIC100 is 500 µg/mL, the MFC was 1000 µg/mL and the fungicidal effect entry was “loss of the effect”.
For the compound “Polyoxyethylene 20 cetyl/stearyl ether [BRIJ 68]”, in series [1], the MIC80 is 1.95 µg/mL, the MIC100 is 3.9 µg/mL and the MFC is 15.6 µg/mL.
In series [1], “Polyoxyethylene 2 stearyl ether [BRIJ 72]” yielded an MIC80 of 0.98 µg/mL, an MIC100 of 0.98 µg/mL and an MFC of 3.9 µg/mL.
As for Polyoxyethylene 2 oleyl ether [BRIJ 93], in series [1], the MIC80 turned out to be 250 µg/mL, the MIC100 amounted to 250 µg/mL, the MFC stood at 1000 µg/mL and the fungicidal effect entry is reported as “loss of the effect”.
For “Polyoxyethylene 23 lauryl ether [BRIJ 35]”, in series [1], the MIC80 is 0.49 µg/mL, the MIC100 was found to be 0.98 µg/mL and the minimal fungicidal concentration (MFC) stood at 1.95 µg/mL. For the same compound, the CMC in series [8] is on record as 0.09 mM.
In series [1], `CCCCCCCCO[C@@H]1O[C@H](CO)[C@@H](O)[C@H](O)[C@H]1O` [n-octyl-β-D-glucopyranoside] registered an MIC80 of 31.25 µg/mL (≈ 107 µM) and an MIC100 of 1000 µg/mL (≈ 3420 µM). In series [8], the CMC was 20 to 25 mM.
In series [1], “Polyoxyethylenesorbitan monopalmitate [Tween 60]” yielded an MIC80 of 250 µg/mL, an MIC100 of 500 µg/mL and an MFC of 1000 µg/mL. For the same compound, the CMC in series [8] is given as 0.059 mM.
With Polyoxyethylene 2 cetyl ether [BRIJ 52], in series [1], the MIC80 came to 0.98 µg/mL, the MIC100 amounted to 3.9 µg/mL and the MFC stood at 7.8 µg/mL.
In the case of “Polyoxyethylenesorbitan monooleate [Tween 80]”, in series [1], the MIC80 was determined as 250 µg/mL, the MIC100 amounted to 1000 µg/mL and the MFC stood at 1000 µg/mL. Also, in series [8], the CMC was 0.059 mM.
`C[C@H](CCC(=O)NCCC[N+](C)(C)CCCS(=O)(=O)[O-])[C@H]1CC[C@H]2[C@@H]3[C@H](O)C[C@@H]4C[C@H](O)CC[C@]4(C)[C@H]3C[C@H](O)[C@]12C` [CHAPS]: in series [1], the MIC80 stood at 500 µg/mL (≈ 813 µM) and the MIC100 turned out to be 1000 µg/mL (≈ 1630 µM). Further, in series [8], the CMC was 6 to 10 mM.
In series [1], “Polyethylene glycol tert-octylphenyl ether [Triton X-100]” came in with an MIC80 of 31.25 µg/mL and an MIC100 of 1000 µg/mL. Further, the CMC in series [8] was 0.2 to 0.9 mM.
Consider “Polyoxyethylene 20 cetyl ether [BRIJ 58]”, for which, in series [1], the MIC80 is 0.49 µg/mL, the MIC100 came to 0.98 µg/mL and the MFC amounted to 1.95 µg/mL.
Turning to `CCCCCCCCS[C@@H]1O[C@H](CO)[C@@H](O)[C@H](O)[C@H]1O` [n-octyl-β-D-thioglucopyranoside], in series [1], the MIC80 was found to be 500 µg/mL (≈ 1620 µM) and the MIC100 worked out at 1000 µg/mL (≈ 3240 µM). The CMC in series [8] was 9 mM.
